Data published in PubChem BioAssay (NCI).
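48-hour exposure; five concentrations; linearly interpolated endpoints. GI50 is the concentration that inhibits growth by half. TGI: concentration producing complete growth inhibition.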

How the values were obtained:
Experiment in all cases: growth of human tumour cells (NCI), 48 h
[1] = test system: LOX IMVI melanoma
[2] = test system: HCT-116 colon
[3] = test system: EKVX NSCLC
[4] = test system: SF-268 CNS
[5] = test system: RPMI-8226 leukemia
[6] = test system: SK-OV-3 ovarian
[7] = test system: CCRF-CEM leukemia
[8] = test system: MALME-3M melanoma
[9] = test system: RXF 393 renal
[10] = test system: A498 renal

Row | Structure (SMILES) | GI50 [1] | TGI [1] | GI50 [2] | TGI [2] | GI50 [3] | TGI [3] | GI50 [4] | TGI [4] | GI50 [5] | TGI [5] | GI50 [6] | TGI [6] | GI50 [7] | TGI [7] | TGI [8] | TGI [9] | TGI [10] | GI50 [8] | GI50 [9] | GI50 [10]
1 | O=C(O)c1cccc(COc2ccc([N+](=O)[O-])cc2Cl)c1 | 94 µM | > 100 µM | > 100 µM | > 100 µM | 0.549 µM | 4.87 µM | 7.71 µM | 85.6 µM | > 100 µM | > 100 µM | > 100 µM | > 100 µM | > 100 µM | > 100 µM | – | – | – | – | – | –
2 | O=C(N/C(=C\c1ccc([N+](=O)[O-])cc1)c1nc2ccccc2[nH]1)c1ccccc1 | – | – | – | > 100 µM | – | > 100 µM | – | > 100 µM | – | > 100 µM | – | – | – | – | > 100 µM | > 100 µM | > 100 µM | – | – | –
3 | COc1cc2c(cc1O)CCN[C@]21CS[C@@H]2c3c(OC(C)=O)c(C)c4c(c3[C@H](COC1=O)N1[C@@H]2[C@H]2c3c(cc(C)c(OC)c3O)C[C@@H]([C@@H]1O)N2C)OCO4 | – | 0.262 µM | – | 2.94 µM | 0.00467 µM | 0.0459 µM | – | 0.0486 µM | – | 0.00529 µM | 0.00309 µM | 3.99 µM | – | 3.11 µM | – | 0.00401 µM | – | – | – | –
4 | CN(C)CCNCCN | – | > 100 µM | – | > 100 µM | – | > 100 µM | – | > 100 µM | – | > 100 µM | – | > 100 µM | – | – | > 100 µM | – | > 100 µM | – | – | –
5 | O=C(CC(=O)C1CCOC1=O)C(=O)Nc1cccc(Cl)c1 (stereo not given) | – | > 100 µM | – | > 100 µM | – | > 100 µM | – | > 100 µM | – | > 100 µM | – | > 100 µM | – | – | > 100 µM | > 100 µM | > 100 µM | – | – | –
6 | CC1=NN(C(=O)CC(=O)Nc2ccccc2F)C(=O)C1N=Nc1ccccc1[N+](=O)[O-] (stereo not given) | – | – | – | > 100 µM | – | > 100 µM | – | > 100 µM | – | > 100 µM | – | > 100 µM | – | > 100 µM | > 100 µM | > 100 µM | – | – | – | –
7 | COc1ccc(CC2c3c(cc(OC)c(OC)c3OC)CCN2C)cc1OC (stereo not given) | – | – | – | > 100 µM | – | > 100 µM | – | > 100 µM | – | > 100 µM | – | – | – | > 100 µM | > 100 µM | – | > 100 µM | – | – | –
8 | O=C1c2ccccc2-c2c1c1ccccc1c(=O)n2CCN1CCNCC1 | 0.735 µM | 2.99 µM | 0.573 µM | 3.97 µM | 7.24 µM | 26.4 µM | 5.83 µM | 26.4 µM | 1.63 µM | 4.43 µM | 1.73 µM | 6.26 µM | 0.671 µM | 4.26 µM | 6.79 µM | 19.6 µM | – | 2.53 µM | 4.31 µM | –
9 | CC1(C)CN=C(NN=C(/C=C/c2ccc(C(F)(F)F)cc2)/C=C/c2ccc(C(F)(F)F)cc2)NC1 | 1.39 µM | 2.8 µM | 1.32 µM | 2.75 µM | – | – | 1.51 µM | 3.12 µM | 0.466 µM | 2.3 µM | 1.77 µM | 3.16 µM | 1.12 µM | 4.17 µM | 3.78 µM | 2.73 µM | 2.78 µM | 1.86 µM | 1.33 µM | 1.42 µM
10 | O=C(Cc1nc2c3c(ccc2[nH]c1=O)C(=O)c1ccccc1C3=O)C(=O)Nc1ccccc1[N+](=O)[O-] | – | 44.8 µM | – | 65.4 µM | – | 36.7 µM | – | 31.5 µM | – | 41.1 µM | – | > 100 µM | – | 11.6 µM | 36.6 µM | – | – | – | – | –
11 | COc1ccc(-c2nc(-c3cc(OC)cc(OC)c3)[nH]c2-c2ccc(OC)cc2)cc1 | – | – | 8.06 µM | > 100 µM | – | – | > 100 µM | > 100 µM | 2.49 µM | 6.96 µM | > 100 µM | > 100 µM | 3.93 µM | > 100 µM | > 100 µM | > 100 µM | > 100 µM | 8.31 µM | > 100 µM | > 100 µM
12 | CC(C)c1[nH]nc2c1N=C(c1ccccc1Cl)c1cc([N+](=O)[O-])ccc1N2 | 5 µM | > 17.5 µM | 4.35 µM | > 25 µM | – | – | 7.92 µM | > 25 µM | 8.85 µM | > 22.6 µM | 10.1 µM | > 25 µM | 5.34 µM | > 17.8 µM | > 25 µM | 8.45 µM | 9.37 µM | > 16.2 µM | 3.64 µM | 4.53 µM
13 | CC(C)(C)[Si](C)(C)OC1[C@@H](CNC(=O)NC(=O)CCl)O[C@@H](n2cnc3c(N)ncnc32)[C@H]1O[Si](C)(C)C(C)(C)C (stereo not given in full) | 0.148 µM | 0.382 µM | 0.795 µM | 1.51 µM | – | – | 1.06 µM | 2.09 µM | 0.805 µM | 2.34 µM | 1.05 µM | 2.01 µM | 0.121 µM | 0.326 µM | 1.96 µM | 1.58 µM | 12.8 µM | 0.98 µM | 0.859 µM | 6.21 µM
14 | Cc1cc(Nc2nc(-c3cn(-c4ccc(Cl)cc4)nn3)nc3ccccc23)n[nH]1 | 9.7 µM | > 50 µM | 7.64 µM | 25.4 µM | – | – | 14.6 µM | > 50 µM | 19.6 µM | > 50 µM | 6.82 µM | 48.5 µM | 19.5 µM | > 50 µM | 30.1 µM | 26.1 µM | > 50 µM | 10.8 µM | 5.09 µM | > 50 µM
15 | Cn1cc(-c2csc(-c3cn(CCCCN4CCCCC4)c4ccccc34)n2)c2cccnc21 | 1.71 µM | 3.21 µM | – | – | 1.58 µM | 3.03 µM | 1.71 µM | 3.37 µM | – | – | 1.77 µM | 3.21 µM | – | – | – | 2.99 µM | 3 µM | – | 1.48 µM | 1.61 µM
16 | O=[N+]([O-])c1cccc(C2=NOC(C3CCCCC3)C2)c1 (stereo not given) | – | – | – | > 100 µM | – | – | – | > 100 µM | – | – | – | > 100 µM | – | > 100 µM | > 100 µM | – | > 100 µM | – | – | –
17 | CC1CC(O)C(=O)C(O[C@@H]2C[C@@H]3CC[C@@H]4[C@H](CC[C@]5(C)C(C6=CC(=O)OC6)CC[C@]45O)[C@@]3(C=O)C[C@H]2O)O1 (stereo not given in full) | – | 0.0681 µM | – | 0.0511 µM | – | 0.0542 µM | – | 0.146 µM | – | 0.246 µM | – | 0.122 µM | – | – | 0.0708 µM | 0.0506 µM | 0.232 µM | – | – | –
18 | CCCC/C(=C\C1=C(C)C(=O)C(OC)=C(OC)C1=O)C(=O)O | > 100 µM | > 100 µM | > 100 µM | > 100 µM | > 100 µM | > 100 µM | > 100 µM | > 100 µM | > 100 µM | > 100 µM | > 100 µM | > 100 µM | – | – | > 100 µM | > 100 µM | > 100 µM | > 100 µM | > 100 µM | > 100 µM
19 | ClCCN(CCCl)c1ccc(CNc2ccccc2)cc1 | 4.52 µM | 26 µM | 9.67 µM | > 100 µM | – | – | 4.25 µM | > 100 µM | 12.9 µM | 69.4 µM | 12 µM | > 100 µM | 4.12 µM | > 100 µM | 76.8 µM | – | 24.3 µM | 21.8 µM | – | 6.32 µM
20 | N#CCCN1C/C(=C/c2ccc(Br)cc2)C(=O)/C(=C/c2ccc(Br)cc2)C1 | 0.512 µM | 1.76 µM | 0.181 µM | 0.345 µM | – | – | – | – | 0.262 µM | > 100 µM | 2.93 µM | 8.1 µM | 0.341 µM | > 100 µM | 5.29 µM | 3.04 µM | – | 2.23 µM | 1.55 µM | –
21 | Cn1c(=O)nc2n(-c3cc(C(F)(F)F)cc(C(F)(F)F)c3)c3ccccc3nc-2c1=O | – | > 100 µM | – | > 100 µM | – | > 100 µM | – | > 100 µM | – | > 100 µM | – | > 100 µM | – | – | > 100 µM | > 100 µM | > 100 µM | – | – | –
22 | CC1=C(C#N)C(=O)CC(c2ccc(Cl)cc2)N(C)N1 (stereo not given) | – | > 100 µM | – | > 100 µM | – | – | – | > 100 µM | – | > 100 µM | – | > 100 µM | – | – | > 100 µM | > 100 µM | > 100 µM | – | – | –
23 | COc1ccc(C(=O)c2cc(OC)c(OC)c(OC)c2)cc1OC | – | > 100 µM | – | > 100 µM | – | > 100 µM | – | > 100 µM | – | > 100 µM | – | – | – | > 100 µM | > 100 µM | 6.3 µM | – | – | – | –
24 | CC(=O)N1CCN(c2ccc(OCC3COC(Cn4ccnc4)(c4ccc(Cl)cc4Cl)O3)cc2)CC1 (stereo not given) | – | 36 µM | – | 76.6 µM | – | – | – | – | – | > 100 µM | – | > 100 µM | – | > 100 µM | > 100 µM | 57.8 µM | > 100 µM | – | – | –
25 | COc1ccc(-c2oc(/C=N/NC(N)=S)c([N+](=O)[O-])c2-c2ccc(OC)c(OC)c2)cc1OC | – | 66 µM | – | 41.1 µM | – | 80.4 µM | – | 58 µM | – | 41.5 µM | – | 69.3 µM | – | – | 35.9 µM | 45.6 µM | – | – | – | –
26 | CCCCCCCCCCNC(=O)CI | < 0.0424 µM | 0.104 µM | 1.65 µM | 3.07 µM | – | – | 1.86 µM | 3.65 µM | 2.21 µM | 5.02 µM | 1.89 µM | 3.38 µM | 0.194 µM | 0.482 µM | 0.494 µM | 3.53 µM | 26.1 µM | 0.213 µM | 1.74 µM | 12.4 µM
27 | CCN1c2ccccc2-c2c3c1cc(C)cc3c1ccccc1[n+]2CC | – | 1.89 µM | – | 3.89 µM | – | – | – | 2.04 µM | – | 2.92 µM | – | 5.68 µM | – | 2.83 µM | 7.73 µM | 9.51 µM | 13.9 µM | – | – | –
